Source: patent publication US8476265B2, “Compounds-801” (AstraZeneca AB, priority 2010, dated 2013)

Tests used:
[1] = target: T1, human muscarinic acetylcholine M3 receptor (Homo sapiens, UniProt P20309); assay: Muscarinic 3 receptor binding assay ([3H]NMS competition, SPA), single concentration 1 μM; conditions: 1 μM compound; % inhibition specific [3H]-NMS binding
T1 construct: expressed in transfected cells; host or cells: CHO-K1 (Chinese Hamster Ovary) cell membranes
Experimental: The following experimental procedure was used to determine the M3% inhibition at 1 μM of the compounds of Examples 99-175
Muscarinic 3 Receptor Binding Assay
The activity (% inhibition specific binding) of compounds on the M3 receptor is determined by competition binding of [^3H]N-methyl scopolamine (NMS) to CHO-K1 (Chinese Hamster Ovary) cell membranes expressing the human muscarinic acetylcholine M3 receptor (M3-ACh) in a scintillation proximity assay (SPA) format. SPA beads are precoated with membranes and then incubated at 2 mg of beads per well with 1 μM compound of the invention, [^3H]NMS at 0.1 nM, quarter Kd (experimentally determined dissociation constant) and assay buffer (20 mM HEPES pH 7.4 containing 5 mM MgCl2 and 0.1% (w/v) bovine serum albumin). The assay is conducted in a final volume of 200 μL, in the presence of 1% (v/v) dimethyl sulphoxide (DMSO). Total binding of [^3H]NMS is determined in the absence of competing compound and non-specific binding of [^3H]NMS is determined in the presence of 1 μM atropine. The plates are incubated for 16 hours at room temperature and then read on Wallac Microbeta™ using a normalised ^3H protocol. The compound activity at 1 μM, defined as % inhibition specific [^3H]-NMS binding, is determined.

[2] = target: T2, Adrenergic β2 (Homo sapiens, UniProt P07550); assay: Adrenergic β2 mediated cAMP production in H292 cells, single concentration 1 μM; format: cell-based; conditions: NCI-H292, 1 μM compound, cAMP as percentage of the maximum response generated by 1E-07M formoterol, read-out: β2 % effect @1 uM
T2 construct: Adherent H292 cells are removed from tissue culture flasks by treatment with Accutase™ cell detachment solution; endogenous in cells; host or cells: H292 cells
T2 sequence (P07550 whole entry): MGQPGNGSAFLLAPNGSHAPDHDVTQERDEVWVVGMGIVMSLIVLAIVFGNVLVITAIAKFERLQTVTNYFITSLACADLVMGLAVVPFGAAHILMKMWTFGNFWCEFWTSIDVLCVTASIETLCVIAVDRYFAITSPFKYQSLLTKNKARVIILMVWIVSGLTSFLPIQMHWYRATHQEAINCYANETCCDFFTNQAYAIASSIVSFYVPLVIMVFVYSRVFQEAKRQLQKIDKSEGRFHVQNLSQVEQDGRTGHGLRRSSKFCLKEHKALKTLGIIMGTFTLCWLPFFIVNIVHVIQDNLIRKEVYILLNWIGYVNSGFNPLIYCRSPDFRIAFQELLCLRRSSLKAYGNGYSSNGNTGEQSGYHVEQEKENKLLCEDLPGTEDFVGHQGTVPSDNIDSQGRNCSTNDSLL
Experimental: The following experimental procedure was used to measure the beta-2% effect at 1 μM for the compounds of Examples 99-175. Adrenergic p2 Mediated cAMP Production Cell Preparation
H292 cells are grown in 225 cm2 flasks incubator at 37° C., 5% CO2 in RPMI medium containing 10% (v/v) FBS (foetal bovine serum) and 2 mM L-glutamine.
Compounds are prepared by an initial first dilution into DMSO to give 1 mM stock concentration. This is followed by a 1 in 10 dilution of the stock concentration (10 μl stock compound +90 μl DMSO) to give 0.1 mM compound. A compound addition plate is prepared by making a further 1 in 25 dilution in assay buffer (HBSS solution containing 10 mM HEPES pH7.4 and 5 mM glucose) containing 4% dimethylsulfoxide. The final compound concentration in assay is 1 μM.
Adherent H292 cells are removed from tissue culture flasks by treatment with Accutase™ cell detachment solution for 15 minutes. Flasks are incubated for 15 minutes in a humidified incubator at 37° C., 5% CO2. Detached cells are re-suspended in RPMI media (containing 10% (v/v) FBS and 2 mM L-glutamine) at 0.1×10^6 cells per mL. 10000 cells in 100 μL are added to each well of a tissue-culture-treated 96-well plate and the cells incubated overnight in a humidified incubator at 37° C., 5% CO2. The culture media is removed and cells are washed twice with 100 μL assay buffer and replaced with 50 μL assay buffer (HBSS solution containing 10 mM HEPES pH7.4 and 5 mM glucose). Cells are rested at room temperature for 20 minutes after which time 25 μL of rolipram (1.2 mM made up in assay buffer) is added. Cells are incubated with rolipram for 10 minutes after which time 25 μl test compounds are added and the cells are incubated for 60 minutes at room temperature. The final rolipram concentration in the assay is 300 μM and final vehicle concentration is 1% (v/v) dimethylsulphoxide. The reaction is stopped by removing supernatants, washing once with 100 μL assay buffer and replacing with 50 μL lysis buffer. The cell monolayer is frozen at −80° C. for 30 minutes (or overnight).
AlphaScreen™ cAMP Detection
The concentration of cAMP (cyclic adenosine monophosphate) in the cell lysate is determined using AlphaScreen™ methodology. The frozen cell plate is thawed for 20 minutes on a plate shaker then 10 μL of the cell lysate is transferred to a 96-well white plate. 40 μl of mixed AlphaScreen™ detection beads (containing equal volumes of donor beads (pre-incubated with biotinylated cAMP in the dark for 30 minutes) and acceptor beads is added to each well and the plate incubated at room temperature for 3 hours in the dark. The AlphaScreen™ signal is measured using an EnVision spectrophotometer (Perkin-Elmer Inc.) with the recommended manufacturer's settings. Concentration of cAMP produced per well were calculated with reference to the cAMP standard curve determined in the same experiment and expressed as a percentage of the maximum response generated by 1E-07M formoterol.

T1 sequence (P20309 whole entry): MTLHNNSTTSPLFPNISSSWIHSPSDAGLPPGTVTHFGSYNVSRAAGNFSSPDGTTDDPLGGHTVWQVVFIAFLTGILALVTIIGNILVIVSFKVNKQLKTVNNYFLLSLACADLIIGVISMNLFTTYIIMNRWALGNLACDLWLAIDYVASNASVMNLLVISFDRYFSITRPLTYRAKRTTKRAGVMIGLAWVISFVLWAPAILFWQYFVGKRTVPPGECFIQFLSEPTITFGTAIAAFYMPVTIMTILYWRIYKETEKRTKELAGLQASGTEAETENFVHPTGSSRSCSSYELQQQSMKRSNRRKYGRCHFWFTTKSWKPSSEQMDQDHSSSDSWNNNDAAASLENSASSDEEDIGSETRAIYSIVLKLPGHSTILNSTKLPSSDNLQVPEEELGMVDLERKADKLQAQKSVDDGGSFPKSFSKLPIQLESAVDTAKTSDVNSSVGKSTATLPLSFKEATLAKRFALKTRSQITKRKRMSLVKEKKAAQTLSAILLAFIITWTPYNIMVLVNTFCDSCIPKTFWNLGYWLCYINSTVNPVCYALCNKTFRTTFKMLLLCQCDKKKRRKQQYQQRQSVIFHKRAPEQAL

Question: How did the inhibition at 1 µM [1] turn out when `O=C1COc2c(CCNCCN(C(=O)CCOCCc3cccc(CN4CCC5(CC4)CN(C(=O)c4cccs4)CCO5)c3)C3CCCCC3)ccc(O)c2N1` [Example 153, N-Cyclohexyl-N-(2-(2-(5-hydroxy-3-oxo-3,4-dihydro-2H-benzo[b][1,4]oxazin-8-yl)ethylamino)ethyl)-3-(3-((4-(thiophene-2-carbonyl)-1-oxa-4,9-diazaspiro[5.5]undecan-9-yl)methyl)phenethoxy)propanamide] was run?
Answer: Its inhibition at 1 µM is 101%.

Question: What about the percent of formoterol maximum response at 1 µM [2] of the same compound?
Answer: The percent of formoterol maximum response at 1 µM was 98%.

Question: How did the inhibition at 1 µM [1] turn out when `O=C1COc2c(CCNCCN(C(=O)CCOCCc3cccc(CN4CCC5(CC4)CN(C(=O)c4cc6cc(F)ccc6[nH]4)CCO5)c3)C3CCCCC3)ccc(O)c2N1` [Example 107, N-Cyclohexyl-3-(3-((4-(5-fluoro-1H-indole-2-carbonyl)-1-oxa-4,9-diazaspiro[5.5]undecan-9-yl)methyl)phenethoxy)-N-(2-(2-(5-hydroxy-3-oxo-3,4-dihydro-2H-benzo[b][1,4]oxazin-8-yl)ethylamino)ethyl)propanamide] was run?
Answer: Its inhibition at 1 µM is 100%.

Question: What about the percent of formoterol maximum response at 1 µM [2] of the same compound?
Answer: The percent of formoterol maximum response at 1 µM was 101%.

Question: What does the source list for `O=C1COc2c(CCNCCN(C(=O)CCOCCc3cccc(CN4CCC5(CC4)CN(C(=O)c4cnccc4C(F)(F)F)CCO5)c3)C3CCCCC3)ccc(O)c2N1` [Example 121, N-Cyclohexyl-N-(2-(2-(5-hydroxy-3-oxo-3,4-dihydro-2H-benzo[b][1,4]oxazin-8-yl)ethylamino)ethyl)-3-(3-((4-(4-(trifluoromethyl)nicotinoyl)-1-oxa-4,9-diazaspiro[5.5]undecan-9-yl)methyl)phenethoxy)propanamide]?
Answer: inhibition at 1 µM [1]: 88%; percent of formoterol maximum response at 1 µM [2]: 84%

Question: How did the inhibition at 1 µM [1] turn out when `O=C1COc2c(CCNCCN(C(=O)CCOCCc3cccc(CN4CCC5(CC4)CN(C(=O)c4ccc(F)cc4F)CCO5)c3)C3CCCCC3)ccc(O)c2N1` [Example 162, N-Cyclohexyl-3-(3-((4-(2,4-difluorobenzoyl)-1-oxa-4,9-diazaspiro[5.5]undecan-9-yl)methyl)phenethoxy)-N-(2-(2-(5-hydroxy-3-oxo-3,4-dihydro-2H-benzo[b][1,4]oxazin-8-yl)ethylamino)ethyl)propanamide] was run?
Answer: Its inhibition at 1 µM is 100%.

Question: What about the percent of formoterol maximum response at 1 µM [2] of the same compound?
Answer: The percent of formoterol maximum response at 1 µM was 95%.

Question: Which inhibition at 1 µM [1] does the source give for `O=C1COc2c(CCNCCN(C(=O)CCOCCc3cccc(CN4CCC5(CC4)CN(C(=O)C(CO)c4ccccc4)CCO5)c3)C3CCCCC3)ccc(O)c2N1` (centres unmarked) [Example 104, N-Cyclohexyl-3-(3-((4-(3-hydroxy-2-phenylpropanoyl)-1-oxa-4,9-diazaspiro[5.5]undecan-9-yl)methyl)phenethoxy)-N-(2-(2-(5-hydroxy-3-oxo-3,4-dihydro-2H-benzo[b][1,4]oxazin-8-yl)ethylamino)ethyl)propanamide] here?
Answer: Its inhibition at 1 µM is 101%.

Question: What about the percent of formoterol maximum response at 1 µM [2] of the same compound?
Answer: The percent of formoterol maximum response at 1 µM was 100%.

Question: `O=C1COc2c(CCNCCN(C(=O)CCOCCc3cccc(CN4CCC5(CC4)CN(C(=O)C4(c6ccccc6)CC4)CCO5)c3)C3CCCCC3)ccc(O)c2N1` [Example 113, N-Cyclohexyl-N-(2-(2-(5-hydroxy-3-oxo-3,4-dihydro-2H-benzo[b][1,4]oxazin-8-yl)ethylamino)ethyl)-3-(3-((4-(1-phenylcyclopropanecarbonyl)-1-oxa-4,9-diazaspiro[5.5]undecan-9-yl)methyl)phenethoxy)propanamide] was tested. Which inhibition at 1 µM [1] did it give?
Answer: Its inhibition at 1 µM is 100%.

Question: And the percent of formoterol maximum response at 1 µM [2]?
Answer: The percent of formoterol maximum response at 1 µM was 112%.

Question: `O=C1COc2c(CCNCCN(C(=O)CCOCCc3cccc(CN4CCC5(CC4)CN(C(=O)c4c(F)cccc4F)CCO5)c3)C3CCCCC3)ccc(O)c2N1` [Example 163, N-Cyclohexyl-3-(3-((4-(2,6-difluorobenzoyl)-1-oxa-4,9-diazaspiro[5.5]undecan-9-yl)methyl)phenethoxy)-N-(2-(2-(5-hydroxy-3-oxo-3,4-dihydro-2H-benzo[b][1,4]oxazin-8-yl)ethylamino)ethyl)propanamide] was tested. Which inhibition at 1 µM [1] did it give?
Answer: Its inhibition at 1 µM is 98%.

Question: What about the percent of formoterol maximum response at 1 µM [2] of the same compound?
Answer: Its percent of formoterol maximum response at 1 µM is 97%.

Question: Which inhibition at 1 µM [1] does the source give for `Cc1ccccc1OCC(=O)N1CCOC2(CCN(Cc3cccc(CCOCCC(=O)N(CCNCCc4ccc(O)c5c4OCC(=O)N5)C4CCCCC4)c3)CC2)C1` [Example 127, N-Cyclohexyl-N-(2-(2-(5-hydroxy-3-oxo-3,4-dihydro-2H-benzo[b][1,4]oxazin-8-yl)ethylamino)ethyl)-3-(3-((4-(2-(o-tolyloxy)acetyl)-1-oxa-4,9-diazaspiro[5.5]undecan-9-yl)methyl)phenethoxy)propanamide] here?
Answer: Its inhibition at 1 µM is 97%.

Question: What about the percent of formoterol maximum response at 1 µM [2] of the same compound?
Answer: The percent of formoterol maximum response at 1 µM was 110%.

Question: What does the source list for `CCOc1ncccc1C(=O)N1CCOC2(CCN(Cc3cccc(CCOCCC(=O)N(CCNCCc4ccc(O)c5c4OCC(=O)N5)C4CCCCC4)c3)CC2)C1` [Example 101, N-Cyclohexyl-3-(3-((4-(2-ethoxynicotinoyl)-1-oxa-4,9-diazaspiro[5.5]undecan-9-yl)methyl)phenethoxy)-N-(2-(2-(5-hydroxy-3-oxo-3,4-dihydro-2H-benzo[b][1,4]oxazin-8-yl)ethylamino)ethyl)propanamide]?
Answer: inhibition at 1 µM [1]: 95%; percent of formoterol maximum response at 1 µM [2]: 105%

Question: `O=C1COc2c(CCNCCN(C(=O)CCOCCc3cccc(CN4CCC5(CC4)CN(C(=O)C(O)C(F)(F)F)CCO5)c3)C3CCCCC3)ccc(O)c2N1` (centres unmarked) [Example 152, N-Cyclohexyl-N-(2-(2-(5-hydroxy-3-oxo-3,4-dihydro-2H-benzo[b][1,4]oxazin-8-yl)ethylamino)ethyl)-3-(3-((4-(3,3,3-trifluoro-2-hydroxypropanoyl)-1-oxa-4,9-diazaspiro[5.5]undecan-9-yl)methyl)phenethoxy)propanamide] was tested. Which inhibition at 1 µM [1] did it give?
Answer: Its inhibition at 1 µM is 100%.

Question: What about the percent of formoterol maximum response at 1 µM [2] of the same compound?
Answer: Its percent of formoterol maximum response at 1 µM is 112%.

Question: Which inhibition at 1 µM [1] does the source give for `O=C1COc2c(CCNCCN(C(=O)CCOCCc3cccc(CN4CCC5(CC4)CN(C(=O)c4cccc6cccnc46)CCO5)c3)C3CCCCC3)ccc(O)c2N1` [Example 100, N-Cyclohexyl-N-(2-(2-(5-hydroxy-3-oxo-3,4-dihydro-2H-benzo[b][1,4]oxazin-8-yl)ethylamino)ethyl)-3-(3-((4-(quinoline-8-carbonyl)-1-oxa-4,9-diazaspiro[5.5]undecan-9-yl)methyl)phenethoxy)propanamide] here?
Answer: The inhibition at 1 µM was 96%.

Question: What about the percent of formoterol maximum response at 1 µM [2] of the same compound?
Answer: The percent of formoterol maximum response at 1 µM was 95%.

Question: How did the inhibition at 1 µM [1] turn out when `O=C1COc2c(CCNCCN(C(=O)CCOCCc3cccc(CN4CCC5(CC4)CN(C(=O)Cc4ccsc4)CCO5)c3)C3CCCCC3)ccc(O)c2N1` [Example 109, N-Cyclohexyl-N-(2-(2-(5-hydroxy-3-oxo-3,4-dihydro-2H-benzo[b][1,4]oxazin-8-yl)ethylamino)ethyl)-3-(3-((4-(2-(thiophen-3-yl)acetyl)-1-oxa-4,9-diazaspiro[5.5]undecan-9-yl)methyl)phenethoxy)propanamide] was run?
Answer: Its inhibition at 1 µM is 99%.

Question: And the percent of formoterol maximum response at 1 µM [2]?
Answer: Its percent of formoterol maximum response at 1 µM is 98%.

Question: With `O=C1COc2c(CCNCCN(C(=O)CCOCCc3cccc(CN4CCC5(CC4)CN(C(=O)Cn4cnc6ccccc64)CCO5)c3)C3CCCCC3)ccc(O)c2N1` [Example 125, 3-(3-((4-(2-(1H-Benzo[d]imidazol-1-yl)acetyl)-1-oxa-4,9-diazaspiro[5.5]undecan-9-yl)methyl)phenethoxy)-N-cyclohexyl-N-(2-(2-(5-hydroxy-3-oxo-3,4-dihydro-2H-benzo[b][1,4]oxazin-8-yl)ethylamino)ethyl)propanamide] as the compound, how does the inhibition at 1 µM [1] read?
Answer: The inhibition at 1 µM was 93%.

Question: What about the percent of formoterol maximum response at 1 µM [2] of the same compound?
Answer: The percent of formoterol maximum response at 1 µM was 114%.
